{
  "source": "patent US20250382261A1",
  "about": "(The Broad Institute, Inc., priority 2021, published 2025)",
  "key": {"[1]": {"system": "A. baumannii (ATCC 17978)", "experiment": "Checkerboard potentiation assay with novobiocin", "format": "cell-based", "experimental": "Bacterial strains and culture conditions. The following bacterial strains were used within this study; A. baumannii (ATCC 17978), K. pneumoniae (ATCC 43816), K. pneumoniae (ATCC 43816, expressing pGDP2:mcr-1), P. aeruginosa (PA01). Bacterial growth was in cation-adjusted Mueller-Hinton broth (MHB) at 37° C., and inoculum was prepared according to CLSI protocol (CLSI 2015).\nPotentiation assays. Checkerboard analyses were conducted with each drug serially diluted at eight concentrations to create an 8×8 matrix. At least two biological replicates were done for each combination, and the means were used for FIC calculation. The FIC for each drug was calculated by dividing the concentration of the drug in the presence of codrug in a combination for a well showing <10% growth by the MIC for that drug alone. The FIC index (FICI) is the sum of the two FICs, with an FIC index≤0.5 deemed synergistic."}, "[2]": {"system": "LPS from E. coli EH100", "experiment": "BODIPY-Cadaverine LPS displacement assay", "format": "binding", "settings": "BODIPY-cadaverine displacement from E. coli EH100 LPS", "experimental": "BODIPY-Cadaverine LPS displacement assay. The BODIPY-cadaverine LPS displacement assay was performed as previously described (Wood et al. 2004. Combinatorial Chemistry & High Throughput Screening, 7: 239-49; Klobucar et al. 2021. ACS Chemical Biology, 16: 929-42). A solution of BODIPY-cadaverine (2.25 μM) and LPS from E. coli EH100 (5.25 μM) in Tris-HCl buffer (50 mM, pH 7.4) was prepared. 0.5 μL of compound and 49.5 μL of the Tris-HCl buffer with BODIPY-cadaverine and LPS solution were added to a Corning nonbinding surface black 384-well polystyrene plate. Fluorescence intensity was measured immediately with an excitation wavelength of 580 nm and an emission wavelength of 620 nm. EC50 values were calculated using a three-parameter logistic curve in GraphPad Prism 9."}, "[3]": {"experiment": "HEK293 cytotoxicity assay (Cell Titer Glo)", "format": "cell-based", "settings": "human, HEK293T Cytotoxicity (IC50, μg/mL)", "experimental": "(§1) Cytotoxicity Assays. HEK293 (ATCC CRL 1573) cells were left to adhere for 18 h at 7.5×10^3 cells per well in DMEM containing 10% FBS and 2 mM L-glutamine. Compound was added directly into the well. After 48 h of treatment Promega Cell Titer Glo 2.0® was added, shaken for 10 min, and luminescence read (Biotek Neo). AC50 values were calculated using a four-parameter logistic curve in GraphPad Prism 9.\n(§2) Focusing on only the analogs that retained synergistic activity with novobiocin (FICI≤0.5), half-maximal activity (AC50) values were calculated against HEK293 cells using a CellTiter-Glo® based assay to approximate cell viability. […] Specifically, the FICI value for both P35 and P36 was 0.094 against A. baumannii, while their AC50 values were 235 μg/mL and 200 μg/mL, respectively."}, "[4]": {"system": "HEK293 (ATCC CRL 1573) cells", "experiment": "HEK293 cytotoxicity assay (Cell Titer Glo)", "format": "cell-based", "settings": "human, 48 h", "experimental": "as §1, §2"}, "[5]": {"system": "A. baumannii ATCC 17978", "experiment": "Systemic A. baumannii murine infection model", "format": "in vivo, mouse", "experimental": "Mouse infection models. Animal experiments were conducted according to guidelines set by the Canadian Council on Animal Care using protocols approved by the Animal Review Ethics Board at McMaster University under Animal Use Protocol #20-12-43. Before infection, mice were relocated at random from a housing cage to treatment or control cages. No animals were excluded from analyses, and blinding was considered unnecessary. Seven- to nine-week-old female C57BL/6 mice (Charles River) were infected intraperitoneally with ˜2×10^6 CFU of A. baumannii ATCC 17978, with 5% porcine mucin (Sigma-Aldrich). Infections were allowed to establish for 2 h, and treatments were administered intraperitoneally. For the survival study, the clinical endpoint was determined using a five-point body condition score analyzing weight loss, decrease in body temperature, respiratory distress, hampered mobility and hunched posture. Experimental endpoint was defined as five days post-infection for mice not reaching clinical endpoint. For CFU/mL enumeration, animals were infected as described above and euthanized 6 h post-infection, and blood was collected into sterile 2 ml heparinized tubes (BD Scientific) serially diluted in PBS and plated onto solid LB. Plates were incubated overnight at 37° C., and colonies were quantified to determine bacterial load.\nThis was directly compared to the activity of P35 and P36 in this model (all administered at 10 mg/kg) in combination with novobiocin (50 mg/kg).\nFor this experiment the same A. baumannii infection model was used, however, endpoint was defined as 6 h post-infection, at which point blood was collected for CFU/mL enumeration (FIG. 2b)."}, "[6]": {"experiment": "In vitro metabolic stability, mouse", "format": "in vitro ADME", "settings": "read-out: In vitro metabolic stability (t1/2, min), mouse"}, "[7]": {"experiment": "In vitro metabolic stability, rat", "format": "in vitro ADME", "settings": "read-out: In vitro metabolic stability (t1/2, min), rat"}, "[8]": {"experiment": "Plasma protein binding (equilibrium dialysis)", "format": "in vitro ADME", "experimental": "Plasma protein binding. Protein binding of P35 in mouse/rat/dog/human plasma was determined using an equilibrium dialysis method. The fraction of compound unbound to proteins was calculated with LC-MS/MS. This assay was performed in duplicate by Cyprotex Ltd."}, "[9]": {"target": "hERG channel (Homo sapiens, UniProt Q12809)", "sequence (Q12809 whole entry)": "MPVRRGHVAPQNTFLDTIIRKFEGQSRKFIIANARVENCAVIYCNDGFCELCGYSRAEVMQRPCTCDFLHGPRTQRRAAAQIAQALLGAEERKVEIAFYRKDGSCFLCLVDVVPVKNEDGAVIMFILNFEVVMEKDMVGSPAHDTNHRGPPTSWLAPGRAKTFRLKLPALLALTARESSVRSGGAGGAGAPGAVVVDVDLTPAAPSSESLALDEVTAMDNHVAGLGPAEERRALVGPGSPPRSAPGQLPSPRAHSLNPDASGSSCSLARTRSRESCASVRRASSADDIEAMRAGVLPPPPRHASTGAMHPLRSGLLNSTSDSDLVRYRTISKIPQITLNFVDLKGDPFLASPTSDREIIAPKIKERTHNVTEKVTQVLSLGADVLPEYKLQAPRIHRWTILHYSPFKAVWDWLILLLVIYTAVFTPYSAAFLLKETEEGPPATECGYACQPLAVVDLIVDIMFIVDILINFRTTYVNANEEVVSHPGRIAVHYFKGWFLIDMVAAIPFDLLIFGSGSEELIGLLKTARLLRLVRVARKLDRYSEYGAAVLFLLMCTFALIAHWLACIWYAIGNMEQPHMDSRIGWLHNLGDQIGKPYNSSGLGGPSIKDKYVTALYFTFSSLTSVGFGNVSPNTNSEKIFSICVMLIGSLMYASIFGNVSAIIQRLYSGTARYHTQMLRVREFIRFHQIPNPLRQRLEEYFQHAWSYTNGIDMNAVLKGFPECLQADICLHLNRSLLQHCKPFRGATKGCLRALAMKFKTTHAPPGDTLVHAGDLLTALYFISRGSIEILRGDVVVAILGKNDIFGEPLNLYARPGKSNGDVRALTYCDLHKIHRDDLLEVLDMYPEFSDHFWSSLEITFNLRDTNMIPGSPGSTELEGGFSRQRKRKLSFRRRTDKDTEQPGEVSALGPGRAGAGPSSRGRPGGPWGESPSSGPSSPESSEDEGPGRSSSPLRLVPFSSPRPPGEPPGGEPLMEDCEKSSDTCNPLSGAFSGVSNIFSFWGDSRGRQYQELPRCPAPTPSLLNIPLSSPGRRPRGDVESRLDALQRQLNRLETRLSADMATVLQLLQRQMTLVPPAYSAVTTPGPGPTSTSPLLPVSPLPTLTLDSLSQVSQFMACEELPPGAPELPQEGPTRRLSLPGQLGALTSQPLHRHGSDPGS", "experimental": "hERG channel assays. All assays were performed by Cyprotex Ltd. using an eCiphrCardio assay. CDI iCell® cardiomyocytes are plated onto fibronectin coated 48 well microelectrode array plates at a density of 50,000 cells per well in 5 μl iCell® plating medium. After 2 h, 300 μl of maintenance medium is added to each well. The plate is incubated for 2 days, and then the medium is completely changed to 500 μl of maintenance medium. The cells are incubated for an additional 3 days until a stable beating phenotype is achieved and the cells are ready for drug treatment. The medium is changed the day before dosing. […] The activity of cells in a 48-well microelectrode array is recorded prior to treatment (baseline) and at 1- and 48-hours post-treatment using the Axion Biosystems Maestro MEA system. The recording conditions are at 37° C. with 5% CO2 using the standard cardiac settings on the Axion Biosystems Maestro Axis software version 2.1. The results are analyzed with the Axion Biosystem software."}, "[10]": {"settings": "in vivo, 1 mg/kg", "quoted_text": "Plasma samples were taken from 3 mice per time point (5, 15, 30 min; 1, 2, 4, 6 and 8 h post-dose). An aliquot of 2 μL sample was protein precipitated with 60 μL methanol, the mixture was vortex-mixed well and centrifuged at 13000 rpm for 10 min at 4° C. 2 μL supernatant was injected for LC-MS/MS analysis. The mean plasma concentration and the standard deviation from all 3 animals within each time point were calculated. PK parameters were calculated with a non-compartmental analysis. The mean plasma concentrations from all 3 mice at each time point were used in the calculations."}},
  "data": [
    {"molecule": "N=C(N)c1ccc(OCCN(CCOc2ccc(C(=N)N)cc2)c2ccccc2)cc1", "note": "[Analog P35]", "values": [
      {"measurement": "FICI with novobiocin in presence of 20 mM Mg2+", "setting": "[1]; 20 mM Mg2+ added to growth media", "value": 0.56},
      {"measurement": "FICI AB", "setting": "[1]; with novobiocin", "value": 0.094},
      {"measurement": "LPS Displacement (EC50, μg/mL)", "setting": "[2]", "value": 87.21, "unit": "µg/mL"},
      {"measurement": "IC50 at 48 h", "setting": "[3]", "value": 235, "unit": "mg/L"},
      {"measurement": "HEK293T Cytotoxicity (IC50, μg/mL)", "setting": "[4]", "value": 235.4, "unit": "µg/mL"},
      {"measurement": "Reduction in blood CFU/mL in combination with novobiocin", "setting": "[5]; 10 mg/kg + 50 mg/kg novobiocin, 6 h post-infection", "value": 3.05, "unit": "log10"},
      {"measurement": "Animals rescued in combination with novobiocin", "setting": "[5]; 10 mg/kg analog + 50 mg/kg novobiocin i.p. 2 h post-infection, endpoint 5 days", "value": 100, "unit": "%"},
      {"measurement": "Impact on blood CFU/mL, treatment alone", "setting": "[5]; alone, 6 h post-infection, compared to control-treated animals", "value": "no significant impact"},
      {"measurement": "half-life", "setting": "[6]", "value": 91.6, "unit": "min"},
      {"measurement": "half-life", "setting": "[7]", "value": 110, "unit": "min"},
      {"measurement": "fraction unbound", "setting": "[8]; dog plasma", "value": 0.126},
      {"measurement": "fraction unbound", "setting": "[8]; human plasma", "value": 0.13},
      {"measurement": "fraction unbound", "setting": "[8]; mouse plasma", "value": 0.169},
      {"measurement": "fraction unbound", "setting": "[8]; rat plasma", "value": 0.077},
      {"measurement": "Effect on beating at 10 μM", "setting": "[9]", "value": "loss of all detectable beating"},
      {"measurement": "Direct hERG channel inhibition 1 h after exposure", "setting": "[9]; human, 1 h", "value": "Neither pentamidine nor P35 directly inhibited the hERG channel"},
      {"measurement": "AUCExtra (%)", "setting": "[10]; female, C57BL/6, mouse, iv", "value": 6.74, "unit": "%"},
      {"measurement": "AUMCExtra (%)", "setting": "[10]; female, C57BL/6, mouse, iv", "value": 37.7, "unit": "%"},
      {"measurement": "Tlast", "setting": "[10]; female, C57BL/6, mouse, iv", "value": 8.00, "unit": "h"},
      {"measurement": "Adverse effects after single intravenous dose", "setting": "[10]; mouse", "value": "no adverse effects"}
    ]}
  ]
}
